ChEMBL document CHEMBL3351452, “Chemical synthesis, cytotoxicity, selectivity and bioavailability of 5α-androstane-3α,17β-diol derivatives” (Bioorg Med Chem, 2014)

Tests used:
[1] = Cytotoxicity against human peripheral blood lymphocytes assessed as assessed as CD4+/CD8+ […] ratio at 0.1 uM after 5 days by flow cytometry analysis (reference value: 2.7%); type: cell-based; conditions: lymphocyte, 120 h
[2] = Cytotoxicity against human peripheral blood lymphocytes assessed as assessed as CD4+/CD8+ […] ratio at 1 uM after 5 days by flow cytometry analysis (reference value: 2.7%); type: cell-based; conditions: lymphocyte, 120 h
[3] = Cytotoxicity against human peripheral blood lymphocytes assessed as assessed as CD3+ T cells population at 5 uM after 5 days by flow cytometry analysis (reference value: 73.8%); type: cell-based; conditions: lymphocyte, 120 h
[4] = Cytotoxicity against human peripheral blood lymphocytes assessed as assessed as CD4+/CD8+ […] ratio at 10 uM after 5 days by flow cytometry analysis (reference value: 2.7 %); type: cell-based; conditions: lymphocyte, 120 h
[5] = Cytotoxicity against human peripheral blood lymphocytes assessed as assessed as CD3+/CD8 T cells population at 10 uM after 5 days by flow cytometry analysis (reference value: 15.2 %); type: cell-based; conditions: lymphocyte, 120 h
LNCaP = assay: Antiproliferative activity against human LNCAP cells assessed as reduction in cell growth after 24 hrs by MTS assay; type: functional, cell-based
[6] = Cytotoxicity against human peripheral blood lymphocytes assessed as assessed as CD4+/CD8+ […] ratio at 50 uM after 5 days by flow cytometry analysis (reference value: 2.7%); type: cell-based; conditions: lymphocyte, 120 h
[7] = Cytotoxicity against human peripheral blood lymphocytes assessed as assessed as CD3+/CD8 T cells population at 5 uM after 5 days by flow cytometry analysis (reference value: 15.2 %); type: cell-based; conditions: lymphocyte, 120 h
MCF7 = assay: Antiproliferative activity against human MCF7 cells assessed as reduction in cell growth after 24 hrs by MTS assay; type: functional, cell-based; conditions: MCF7, 24 h
[8] = Cytotoxicity against human peripheral blood lymphocytes assessed as assessed as CD3+/CD4+ T cells population at 10 uM after 5 days by flow cytometry analysis (reference value: 41.4 %); type: cell-based; conditions: lymphocyte, 120 h
[9] = Plasma concentration in Sprague-Dawley rat at 2.3 mg/kg, sc measured at 12 hrs by LC/MS/MS analysis; type: ADME, organism-based; set-up: dose 2.3 mg/kg, route subcutaneous
[10] = Cytotoxicity against human peripheral blood lymphocytes assessed as assessed as CD19+ B cells population at 0.1 uM after 5 days by flow cytometry analysis (reference value: 2%); type: cell-based; conditions: lymphocyte, 120 h
[11] = Cytotoxicity against human peripheral blood lymphocytes assessed as assessed as CD3+/CD8 T cells population at 30 uM after 5 days by flow cytometry analysis (reference value: 15.2 %); type: cell-based; conditions: lymphocyte, 120 h
[12] = Cytotoxicity against human peripheral blood lymphocytes assessed as assessed as CD19+ B cells population at 30 uM after 5 days by flow cytometry analysis (reference value: 2%); type: cell-based; conditions: lymphocyte, 120 h
Cytochrome P450 2D6 = Cytochrome P450 2D6 (Homo sapiens, UniProt P10635); assay: Inhibition of CYP2D6 (unknown origin) using AMMC by fluorescence assay; type: ADME
Chain of Cytochrome P450 2D6 (P10635 whole entry): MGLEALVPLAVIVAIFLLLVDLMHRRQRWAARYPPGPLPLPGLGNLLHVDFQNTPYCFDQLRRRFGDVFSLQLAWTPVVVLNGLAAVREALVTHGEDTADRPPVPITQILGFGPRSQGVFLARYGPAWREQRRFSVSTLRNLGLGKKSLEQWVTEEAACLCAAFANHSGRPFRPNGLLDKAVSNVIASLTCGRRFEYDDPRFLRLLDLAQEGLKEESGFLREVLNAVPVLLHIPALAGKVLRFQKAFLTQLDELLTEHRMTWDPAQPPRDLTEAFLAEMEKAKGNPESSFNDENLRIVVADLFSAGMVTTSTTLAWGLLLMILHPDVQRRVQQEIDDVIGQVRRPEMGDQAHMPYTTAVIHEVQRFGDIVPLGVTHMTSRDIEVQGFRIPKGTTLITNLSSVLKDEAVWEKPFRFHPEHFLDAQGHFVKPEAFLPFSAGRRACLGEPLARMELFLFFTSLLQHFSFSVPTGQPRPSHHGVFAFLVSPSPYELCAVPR

[13] = Cytotoxicity against human peripheral blood lymphocytes assessed as assessed as CD3+/CD4+ T cells population at 30 uM after 5 days by flow cytometry analysis (reference value: 41.4%); type: cell-based; conditions: lymphocyte, 120 h
[14] = Cytotoxicity against human peripheral blood lymphocytes assessed as assessed as CD3+/CD4+ T cells population at 1 uM after 5 days by flow cytometry analysis (reference value: 41.4%); type: cell-based; conditions: lymphocyte, 120 h
[15] = Cytotoxicity against human peripheral blood lymphocytes assessed as assessed as CD3+/CD8 T cells population at 50 uM after 5 days by flow cytometry analysis (reference value: 15.2 %); type: cell-based; conditions: lymphocyte, 120 h
[16] = Cytotoxicity against human peripheral blood lymphocytes assessed as assessed as CD3+/CD4+ T cells population at 0.1 uM after 5 days by flow cytometry analysis (reference value: 41.4%); type: cell-based; conditions: lymphocyte, 120 h
[17] = Cytotoxicity against human peripheral blood lymphocytes assessed as assessed as CD3+ T cells population at 30 uM after 5 days by flow cytometry analysis (reference value: 73.8%); type: cell-based; conditions: lymphocyte, 120 h
[18] = Cytotoxicity against human peripheral blood lymphocytes assessed as assessed as CD4+/CD8+ […] ratio at 5 uM after 5 days by flow cytometry analysis (reference value: 2.7%); type: cell-based; conditions: lymphocyte, 120 h
[19] = Cytotoxicity against human peripheral blood lymphocytes assessed as assessed as CD4+/CD8+ […] ratio at 30 uM after 5 days by flow cytometry analysis (reference value: 2.7%); type: cell-based; conditions: lymphocyte, 120 h
[20] = Plasma concentration in Sprague-Dawley rat at 2.3 mg/kg, sc measured at 3 hrs by LC/MS/MS analysis; type: ADME, organism-based; set-up: dose 2.3 mg/kg, route subcutaneous
[21] = Cytotoxicity against human peripheral blood lymphocytes assessed as assessed as CD3+/CD4+ T cells population at 50 uM after 5 days by flow cytometry analysis (reference value: 41.4%); type: cell-based; conditions: lymphocyte, 120 h
[22] = Cytotoxicity against human peripheral blood lymphocytes assessed as assessed as CD3+ T cells population at 0.1 uM after 5 days by flow cytometry analysis (reference value: 73.8%); type: cell-based; conditions: lymphocyte, 120 h
HL-60 = assay: Antiproliferative activity against human HL-60 cells assessed as reduction in cell growth after 24 hrs by MTS assay; type: functional, cell-based; conditions: HL-60, 24 h
[23] = Cytotoxicity against human peripheral blood lymphocytes assessed as assessed as CD3+/CD8 T cells population at 1 uM after 5 days by flow cytometry analysis (reference value: 15.2%); type: cell-based; conditions: lymphocyte, 120 h
[24] = Cytotoxicity against human peripheral blood lymphocytes assessed as assessed as CD3+ T cells population at 10 uM after 5 days by flow cytometry analysis (reference value: 73.8%); type: cell-based; conditions: lymphocyte, 120 h
[25] = Cytotoxicity against human peripheral blood lymphocytes assessed as assessed as CD3+ T cells population at 1 uM after 5 days by flow cytometry analysis (reference value: 73.8%); type: cell-based; conditions: lymphocyte, 120 h
T47D = assay: Antiproliferative activity against human T47D cells assessed as reduction in cell growth after 24 hrs by MTS assay; type: functional, cell-based
[26] = Cytotoxicity against human peripheral blood lymphocytes assessed as assessed as CD3+/CD8 T cells population at 0.1 uM after 5 days by flow cytometry analysis (reference value: 15.2 %); type: cell-based; conditions: lymphocyte, 120 h
[27] = Cytotoxicity against human peripheral blood lymphocytes assessed as assessed as CD19+ B cells population at 5 uM after 5 days by flow cytometry analysis (reference value: 2%); type: cell-based; conditions: lymphocyte, 120 h
[28] = Cytotoxicity against human peripheral blood lymphocytes assessed as assessed as CD19+ B cells population at 1 uM after 5 days by flow cytometry analysis (reference value: 2%); type: cell-based; conditions: lymphocyte, 120 h
[29] = Cytotoxicity against human peripheral blood lymphocytes assessed as assessed as CD19+ B cells population at 50 uM after 5 days by flow cytometry analysis (reference value: 2%); type: cell-based; conditions: lymphocyte, 120 h
[30] = Cytotoxicity against human peripheral blood lymphocytes assessed as assessed as CD19+ B cells population at 10 uM after 5 days by flow cytometry analysis (reference value: 2%); type: cell-based; conditions: lymphocyte, 120 h
[31] = Cytotoxicity against human peripheral blood lymphocytes assessed as assessed as CD3+ T cells population at 50 uM after 5 days by flow cytometry analysis (reference value: 73.8%); type: cell-based; conditions: lymphocyte, 120 h
[32] = Cytotoxicity against human peripheral blood lymphocytes assessed as assessed as CD3+/CD4+ T cells population at 5 uM after 5 days by flow cytometry analysis (reference value: 41.4%); type: cell-based; conditions: lymphocyte, 120 h
Cytochrome P450 3A4 = Cytochrome P450 3A4 (Homo sapiens, UniProt P08684); assay: Inhibition of CYP3A4 (unknown origin) using AMMC by fluorescence assay; type: ADME
Chain of Cytochrome P450 3A4 (P08684 whole entry): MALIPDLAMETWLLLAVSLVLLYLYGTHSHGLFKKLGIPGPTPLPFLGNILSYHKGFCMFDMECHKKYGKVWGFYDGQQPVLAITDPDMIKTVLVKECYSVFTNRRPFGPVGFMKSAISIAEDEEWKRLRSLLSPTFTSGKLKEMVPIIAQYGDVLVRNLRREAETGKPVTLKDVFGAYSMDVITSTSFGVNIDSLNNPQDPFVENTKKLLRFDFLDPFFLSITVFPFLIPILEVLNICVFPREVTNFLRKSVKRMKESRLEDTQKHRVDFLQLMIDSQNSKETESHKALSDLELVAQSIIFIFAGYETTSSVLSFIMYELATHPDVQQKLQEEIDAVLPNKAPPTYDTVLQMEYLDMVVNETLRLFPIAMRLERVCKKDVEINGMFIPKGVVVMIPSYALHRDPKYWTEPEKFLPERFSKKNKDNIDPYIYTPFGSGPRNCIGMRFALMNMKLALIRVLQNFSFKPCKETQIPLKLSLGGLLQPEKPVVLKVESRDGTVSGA

[33] = Cytotoxicity against mouse WEHI13 cells assessed as cell proliferation after 48 hrs by MTT assay; type: cell-based; conditions: WEHI13, 48 h

C#C[C@]1(O)CC[C@H]2[C@@H]3CC[C@H]4C[C@H](O)[C@@H](N5CCN(C(=O)[C@@H]6CCCN6C(=O)c6ccc7ccccc7n6)CC5)C[C@]4(C)[C@H]3CC[C@@]21C
Activity [1]: 1.4%
Activity [2]: 5%
Activity [3]: 59.1%
Activity [4]: 11.3%
Activity [5]: 1.6%
IC50 (LNCaP): 2000 nM
Activity [6]: 231%
Activity [7]: 3.3%
IC50 (MCF7): 100 nM
Activity [8]: 18.4%
concentration at 12 h [9]: 15.7 ng/mL
Activity [10]: 1.1%
Activity [11]: 0.1%
Activity [12]: 1.9%
IC50 (Cytochrome P450 2D6): 25000 nM
Activity [13]: 21%
Activity [14]: 16.6%
Activity [15]: 0.1%
Activity [16]: 16.9%
Activity [17]: 58.5%
Activity [18]: 6%
Activity [19]: 216%
concentration at 3 h [20]: 151 ng/mL
Activity [21]: 23.1%
Activity [22]: 57.5%
IC50 (HL-60): 100 nM
Activity [23]: 3.3%
Activity [24]: 55.1%
Activity [25]: 53.7%
IC50 (T47D): 100 nM
Activity [26]: 12.1%
Activity [27]: 1.7%
Activity [28]: 2.2%
Activity [29]: 1.8%
Activity [30]: 1.4%
Activity [31]: 62.1%
Activity [32]: 19.5%
IC50 (Cytochrome P450 3A4): 3800 nM
IC50 [33]: 1100 nM
